In patent US4312867A, “Antibacterial compounds, processes for their preparation and compositions containing them” (Beecham Group Limited, priority 1979, dated 1982):
In brackets after ≈: the same amount, converted by molar mass.

Columns and labels:
Assay type in all cases: cell-based
E. coli NCTC 10418 [1] = experiment: MIC human bacteria (Table 1), serial dilution in nutrient agar; settings: Escherichia coli, NCTC10418
E. coli ESS = experiment: as above; settings: Escherichia coli; E. coli ESS; nutrient agar with 5% chocolated horse blood; read-out: MIC
P. mirabilis 889 = experiment: as above; settings: Proteus mirabilis, 889
K. aerogenes A = experiment: as above; settings: Klebsiella aerogenes, nutrient agar with 5% chocolated horse blood
Ps. aeruginosa 10662 = experiment: as above; settings: Pseudomonas aeruginosa, nutrient agar with 5% chocolated horse blood
[2] = test system: Pasteurella multocida 1633; experiment: as above; settings: Pasteurella multocida, 1633
[3] = test system: Haemophilus influenzae Q1; experiment: as above; settings: Haemophilus influenzae, Q1
[4] = test system: Haemophilus influenzae Wy21; experiment: as above; settings: Haemophilus influenzae, WY21
Bacillus subtilis 6633 = experiment: as above; settings: nutrient agar with 5% chocolated horse blood
[5] = test system: Corynebacterium xerosis 9755; experiment: as above; settings: nutrient agar with 5% chocolated horse blood, read-out: MIC
Sarcina lutea 8340 = experiment: as above; settings: Micrococcus luteus, nutrient agar with 5% chocolated horse blood, read-out: MIC
Staph aureus Oxford [6] = experiment: as above; settings: Staphylococcus aureus, nutrient agar with 5% chocolated horse blood
Staph aureus Russell = experiment: as above; settings: Staphylococcus aureus, nutrient agar with 5% chocolated horse blood
Staph aureus W2827 = experiment: as above; settings: Staphylococcus aureus, nutrient agar with 5% chocolated horse blood
Strep faecalis I = experiment: as above; settings: nutrient agar with 5% chocolated horse blood
Strep pyogenes A 64/848 = experiment: as above; settings: nutrient agar with 5% chocolated horse blood
Strep pyogenes B 2788 = experiment: as above; settings: nutrient agar with 5% chocolated horse blood
Strep pyogenes C 2761 = experiment: as above; settings: nutrient agar with 5% chocolated horse blood
E. coli NCTC 10418 [7] = experiment: MIC veterinary bacteria (Table 2), serial dilution in agar; settings: Escherichia coli, NCTC10418
E. coli E1 = experiment: as above; settings: Escherichia coli, diagnostic sensitivity test agar
S. dublin S7 = experiment: as above; settings: Salmonella enterica, diagnostic sensitivity test agar
S. typhimurium S18 = experiment: as above; settings: Salmonella enterica, diagnostic sensitivity test agar
Bord bronchiseptica B08 = experiment: as above; settings: diagnostic sensitivity test agar
Bord bronchiseptica B09 = experiment: as above; settings: diagnostic sensitivity test agar
Past multocida PA1 = experiment: as above; settings: diagnostic sensitivity test agar
Past multocida PA2 = experiment: as above; settings: diagnostic sensitivity test agar
Past haemolytica PA5 = experiment: as above; settings: diagnostic sensitivity test agar
[8] = test system: Erysipelothrix rhusiopathiae NCTC 8163; experiment: as above; settings: NCTC8163; Erysipelothrix rhusiopathiae NCTC 8163; diagnostic sensitivity test agar; read-out: MIC
[9] = test system: Corynebacterium pyogenes CY1; experiment: as above; settings: Trueperella pyogenes, diagnostic sensitivity test agar
[10] = test system: Staph aureus B4 (pen. resis); experiment: as above; settings: Staphylococcus aureus
[11] = test system: Staph aureus 152 (pen. sens); experiment: as above; settings: Staphylococcus aureus, diagnostic sensitivity test agar
Staph aureus Oxford [12] = experiment: as above; settings: Staphylococcus aureus
[13] = test system: Strep suis (group D) SPS11; experiment: as above; settings: diagnostic sensitivity test agar
Strep uberis SPU1 = experiment: as above; settings: diagnostic sensitivity test agar
Strep dysgalaciae SPD1 = experiment: as above; settings: diagnostic sensitivity test agar
Strep agalactiae SPA1 = experiment: as above; settings: diagnostic sensitivity test agar
M dispar H225 = experiment: in vitro anti-mycoplasmal MIC, Friis' broth (Table 3)
Description: (§1) The minimum inhibitory concentrations (MIC) of the examples were determined by either:
(§2) (i) in Friis' broth using microtitre plates, by modification of the metabolic-inhibition test (Taylor-Robinson, Post Frad, Med. J., 1967, 43, 100).

M dispar NCTC 10125 = experiment: as above
Description: as §1, §2

M fermentans MWKL4 [14] = experiment: as above
Description: as §1, §2

M pneumoniae 427a [15] = experiment: as above
Description: as §1, §2

M pneumoniae ATCC 15492 [16] = experiment: as above
Description: as §1, §2

M pulmonis JB [17] = experiment: as above
Description: as §1, §2

[18] = test system: M suipneumoniae J2206/183b; experiment: as above
Description: as §1, §2

M suipneumoniae Str 11 = experiment: as above
Description: as §1, §2

M alkalescens NCTC 10135 = experiment: in vitro anti-mycoplasmal MIC, Friis' agar (Table 3)
Description: as §1
(§3) or (ii) by serial dilution in Friis' agar medium.

M arthritidis ATCC 14124 = experiment: as above
Description: as §1, §3

[19] = test system: M bovigenitalium ATCC 14173; experiment: as above
Description: as §1, §3

M fermentans MWKL4 [20] = experiment: as above
Description: as §1, §3

M gallisepticum S6 = experiment: as above
Description: as §1, §3

M hyorhinis ATCC 23234 = experiment: as above
Description: as §1, §3

M hyosynoviae ATCC 25591 = experiment: as above
Description: as §1, §3

M pneumoniae 427a [21] = experiment: as above
Description: as §1, §3

M pneumoniae ATCC 15492 [22] = experiment: as above
Description: as §1, §3

M pulmonis JB [23] = experiment: as above
Description: as §1, §3

M synoviae ATCC 25204 = experiment: as above
Description: as §1, §3

Q: Which results are given for `C/C(=C\C(=O)OCCCS(N)(=O)=O)CC1OCC(CC2OC2C(C)C(C)O)C(O)C1O` (stereo not shown) [Example 1, 3-Sulphamoylpropyl monate A]?
A: MIC (E. coli NCTC 10418 [1]): > 100 mg/L; MIC (E. coli ESS): 25 mg/L (≈ 53.7 µM); MIC (P. mirabilis 889): 100 mg/L (≈ 215 µM); MIC (K. aerogenes A): > 100 mg/L; MIC (Ps. aeruginosa 10662): > 100 mg/L; MIC [2]: 0.5 mg/L (≈ 1.07 µM); MIC [3]: 0.05 mg/L (≈ 0.107 µM); MIC [4]: 0.05 mg/L (≈ 0.107 µM); MIC (Bacillus subtilis 6633): 10 mg/L (≈ 21.5 µM); MIC [5]: > 100 mg/L; MIC (Sarcina lutea 8340): > 100 mg/L; MIC (Staph aureus Oxford [6]): 50 mg/L (≈ 107 µM); MIC (Staph aureus Russell): 50 mg/L (≈ 107 µM); MIC (Staph aureus W2827): 100 mg/L (≈ 215 µM); MIC (Strep faecalis I): > 100 mg/L; MIC (Strep pyogenes A 64/848): 0.5 mg/L (≈ 1.07 µM); MIC (Strep pyogenes B 2788): 2.5 mg/L (≈ 5.37 µM); MIC (Strep pyogenes C 2761): 2.5 mg/L (≈ 5.37 µM); MIC (E. coli NCTC 10418 [7]): > 80 mg/L; MIC (E. coli E1): > 80 mg/L; MIC (S. dublin S7): > 80 mg/L; MIC (S. typhimurium S18): > 80 mg/L; MIC (Bord bronchiseptica B08): 80 mg/L (≈ 172 µM); MIC (Bord bronchiseptica B09): 20 mg/L (≈ 43 µM); MIC (Past multocida PA1): 0.625 mg/L (≈ 1.34 µM); MIC (Past multocida PA2): 0.156 mg/L (≈ 0.335 µM); MIC (Past haemolytica PA5): 10 mg/L (≈ 21.5 µM); MIC [8]: > 80 mg/L; MIC [9]: > 80 mg/L; MIC [10]: 40 mg/L (≈ 85.9 µM); MIC [11]: 20 mg/L (≈ 43 µM); MIC (Staph aureus Oxford [12]): 40 mg/L (≈ 85.9 µM); MIC [13]: 80 mg/L (≈ 172 µM); MIC (Strep uberis SPU1): 1.25 mg/L (≈ 2.68 µM); MIC (Strep dysgalaciae SPD1): 2.5 mg/L (≈ 5.37 µM); MIC (Strep agalactiae SPA1): 2.5 mg/L (≈ 5.37 µM); MIC (M dispar H225): 0.039 mg/L (≈ 0.0838 µM); MIC (M dispar NCTC 10125): 0.078 mg/L (≈ 0.168 µM); MIC (M fermentans MWKL4 [14]): 0.039 mg/L (≈ 0.0838 µM); MIC (M pneumoniae 427a [15]): 2.5 mg/L (≈ 5.37 µM); MIC (M pneumoniae ATCC 15492 [16]): 2.5 mg/L (≈ 5.37 µM); MIC (M pulmonis JB [17]): 0.02 mg/L (≈ 0.043 µM); MIC [18]: 0.312 mg/L (≈ 0.67 µM); MIC (M suipneumoniae Str 11): 0.078 mg/L (≈ 0.168 µM); MIC (M alkalescens NCTC 10135): 0.039 mg/L (≈ 0.0838 µM); MIC (M arthritidis ATCC 14124): > 10 mg/L; MIC [19]: 0.039 mg/L (≈ 0.0838 µM); MIC (M fermentans MWKL4 [20]): 0.078 mg/L (≈ 0.168 µM); MIC (M gallisepticum S6): > 10 mg/L; MIC (M hyorhinis ATCC 23234): 0.312 mg/L (≈ 0.67 µM); MIC (M hyosynoviae ATCC 25591): 0.156 mg/L (≈ 0.335 µM); MIC (M pneumoniae 427a [21]): 2.5 mg/L (≈ 5.37 µM); MIC (M pneumoniae ATCC 15492 [22]): 5 mg/L (≈ 10.7 µM); MIC (M pulmonis JB [23]): 0.039 mg/L (≈ 0.0838 µM); MIC (M synoviae ATCC 25204): < 0.02 mg/L
